This is an account of results in patent US7820179B2, “Pegylated PTH as PTH receptor modulators and uses thereof” (Eli Lilly and Company, priority 2006, dated 2010).

For data set [1] the following is noted: 5 μg/kg/d (1 nmol/kg/d); cited from earlier work.
The subject of data set [2] is aged osteopenic ovariectomized rats. As to conditions: 5 μg/kg/d, aged osteopenic ovariectomized rat model, literature; cited from earlier work.
Data set [3] has the same test system. Nature of the data set: Weekly PTH(1-34) in aged osteopenic ovariectomized rats. The format is in vivo, rat. Here is the method: Six-month old ovariectomized Sprague-Dawley rats are maintained on a 12 hr light/dark cycle at 22° C. with ad lib access to food (TD 89222 with 0.5% Ca and 0.4% P, Teklad, Madison, Wis.) and water. Ovariectomized rats are allowed to lose bone for 1 month, before treatment with rhPTH (1-34) for the following 3 months. The aged osteopenic ovariectomized rats are injected subcutaneously, weekly, with 0, 10 or 30 μg/kg human PTH(1-34) for 12 weeks. Sham and ovx controls are injected with the vehicle only. Lumbar vertebra are excised at necropsy and analyzed by micro-CT (Stratec), and then prepared for biomechanical testing. Strength in Newtons, (N), is evaluated by loading vertebra specimens to failure. Significance with respect to ovx vehicle controls is indicated by * in Table 7 below (Fishers PLSD, P<0.05).

Data set [4] relates to young adult osteopenic ovariectomized rats. Nature of the data set: Young adult osteopenic ovariectomized rats: femur BMD (QCT) and serum calcium. It is filed as in vivo, rat. Particulars: young adult Ovx rats. As to the method:
Female Sprague-Dawley rats about 3 months of age are ovariectomized, except for sham controls, and maintained on a 12 hour light/dark cycle at 22° C. with ad lib access to food (TD 89222 with 0.5% Ca and 0.4% P, Teklad, Madison, Wis.) and water. Ovariectomized (Ovx) rats are allowed to lose bone for 25 days, and then weighed and randomized into treatment groups. Treatment is by subcutaneous injection of a compound of the invention at various doses (as indicated in Table 2 below) for 1 month in a vehicle of 20 mM NaH2PO4 in 0.9% NaCl, 3 mg/ml mannitol, pH 5. The rats are injected with the compounds every third or fourth day to approximate once weekly administration to a human. Sham and Ovx controls are treated with the vehicle only (“sham vehicle control” and “ovx vehicle control”). Sera are collected by cardiac puncture approximately 24 hours after final injection under isoflurane anesthesia at necropsy (approximately 24 hours after the final injection), and analyzed using a clinical chemistry analyzer (Hitachi 917, Tokyo, Japan).
At necropsy, left femora are removed, cleaned of soft-tissue and stored in 50% ethanol/saline at 4° C. At room temperature, femora in 50% EtOH/saline are wrapped in Parafilm and centered with respect to the gantry for quantitative computed tomography (QCT) (Research M, Stratec). […]

Data set [5] deals with aged osteopenic ovariectomized rats. Nature of the data set: Aged osteopenic ovariectomized rats: vertebral BMD/BMC, bone biomechanical strength, serum calcium. The format is in vivo, rat. As to the method:
Hypercalcemia is defined herein as the upper 97.5 percentile serum calcium value of normal ovariectomized vehicle controls for the animal type used, using clinical chemistry data and sera collected from cardiac puncture (International Federation of Clinical Chemistry, H E Solberg in Tietz Fundamentals of Clinical Chemistry, 5th edition, Burtis C A and Ashwood E R, editors, 2001, pp 251-261). The value reflecting the 97.5 percentile is 11.2 mg of calcium per dL of serum from ovx vehicle control. The “Hypercalcemic Dose”, i.e., the dose at which hypercalcemia is observed 24 hours after injection of the test compound using clinical chemistry data and sera collected from cardiac puncture, is determined by interpolation, using regression analysis to fit the calcemic dose response observed 24 hours after administering the compound to ovariectomized rats.
Female Sprague-Dawley rats about 6 months of age are ovariectomized, except for sham controls, and maintained on a 12 hour light/dark cycle at 22° C. with ad lib access to food (TD 89222 with 0.5% Ca and 0.4% P, Teklad, Madison, Wis.) and water. Ovariectomized (Ovx) rats are allowed to lose bone for one month before treatment with compounds of the invention for two additional months. The compound to be tested is subcutaneously administered at various doses (as indicated in Table 3 below) in a vehicle of 20 mM NaH2PO4 in 0.9% NaCl, 3 mg/ml mannitol, pH 5, every 6 or 7 days for two months. Sham and Ovx controls are treated with the vehicle only (“sham vehicle control” and “ovx vehicle control”). Sera are then collected by cardiac puncture under isoflurane anesthesia at necropsy, and analyzed using a clinical chemistry analyzer. Lumbar vertebra L4-6 and left femora are removed, cleaned of soft-tissue and stored in 50% ethanol/saline at 4° C. At room temperature, L-5 in 50% EtOH/saline are wrapped in Parafilm and centered with respect to the QCT gantry (Research M, Stratec). A coronal scout scan of the L-5 vertebra is generated first in 2D before 3D analysis. QCT parameters are measured including BMD (mg/cc), BMC (mg), and cross-sectional area (mm^2). Lumbar vertebra L-5, femoral midshaft, and proximal femur are then prepared for biomechanical testing. Strength (N) is evaluated by loading the specimens to failure as described previously (Sato, et al., Endocrinology, […]:4330-4337, 1997).
Pegylated compounds of the invention are evaluated in this assay relative to a positive control of 3-5 μg/kg/d PTH(1-38). PTH(1-34) and PTH(1-38) are found to be indistinguishable in terms of skeletal efficacy or calcemic effects in osteopenic ovariectomized rats. It has been previously shown that rats administered 5 μg/kg/d (1 nmol/kg/d) PTH(1-34) have a systemic exposure that is about 3 times that of PTH(1-34) (i.e., FORTEO™) in humans (Tashjian and Chabner, J. Bone Miner Res, 17:1151-1161, 2002; Tashjian and Gagel, J. Bone Miner Res, 21:354-365, 2006). […] This is confirmed for PTH(1-38) in this model with a dosing of 3-5 μg/kg/d.

The test system is the same in data set [6]. Kind of data set: Direct comparison of 2 kD and 5 kD pegylated SEQ ID NO: 1 in aged osteopenic ovariectomized rats. It is filed as in vivo, rat. As to conditions: for Serum Calcium: 24 hours after dosing. The text has this: A compound of the invention with SEQ ID NO: 1, wherein the mPEG to which it is conjugated is a 2 kD mPEG, is directly compared to a compound of the invention with SEQ ID NO: 1, wherein the mPEG to which it is conjugated is a 5 kD mPEG. Aged osteopenic ovariectomized rats are permitted to lose bone for one month before dosing (nmol/kg as in Table 5 and 6) every 6 days with vehicle alone, or the 2 kD pegylated SEQ ID NO: 1 compound or the 5 kD pegylated SEQ ID NO: 1 compound for 8 weeks.

[7] abbreviates: up to 30 ug/kg (7 nmol/kg), 12 weeks of treatment.
[8] abbreviates: 11 nmol/kg every 6 days for 8 weeks.
Setting [9] is: 32 nmol/kg every 6 days for 8 weeks.
Where [10] appears, read: 108 nmol/kg every 6 days for 8 weeks.

No end group written: not given here.

In the case of `CC[C@H](C)[C@H](NC(=O)[C@H](CCC(=O)O)NC(=O)[C@H](CO)NC(=O)[C@@H](NC(=O)[C@@H](N)CO)C(C)C)C(=O)N[C@@H](CCC(N)=O)C(=O)N[C@@H](CC(C)C)C(=O)N[C@@H](CCSC)C(=O)N[C@@H](Cc1cnc[nH]1)C(=O)N[C@@H](CC(N)=O)C(=O)N[C@@H](CC(C)C)C(=O)NCC(=O)N[C@@H](CCCCN)C(=O)N[C@@H](Cc1cnc[nH]1)C(=O)N[C@@H](CC(C)C)C(=O)N[C@@H](CC(N)=O)C(=O)N[C@@H](CO)C(=O)N[C@@H](CCSC)C(=O)N[C@@H](CCC(=O)O)C(=O)N[C@@H](CCCN=C(N)N)C(=O)N[C@H](C(=O)N[C@@H](CCC(=O)O)C(=O)N[C@@H](Cc1c[nH]c2ccccc12)C(=O)N[C@@H](CC(C)C)C(=O)N[C@@H](CCCN=C(N)N)C(=O)N[C@@H](CCCCN)C(=O)N[C@@H](CCCCN)C(=O)N[C@@H](CC(C)C)C(=O)N[C@@H](CCC(N)=O)C(=O)N[C@@H](CC(=O)O)C(=O)N[C@H](C(=O)N[C@@H](Cc1cnc[nH]1)C(=O)N[C@@H](CC(N)=O)C(=O)N[C@@H](Cc1ccccc1)C(=O)O)C(C)C)C(C)C` [PTH(1-34)], in data set [1], the “Systemic exposure in rats relative to PTH(1-34) (FORTEO) in humans” value is given as “about 3 times”. Also, the “Restoration of vertebral BMD from Ovx to sham vehicle control levels” value in data set [2] is “restore vertebral BMD from Ovx to sham vehicle control levels”. Besides, the entries for the “Vertebral strength: Average Load to Failure” value in data set [3] (10 ug/kg s.c. weekly for 12 weeks) and in data set [3] (30 ug/kg s.c. weekly for 12 weeks) were 222 N and 243 N, respectively. In addition, the “Vertebral BMD: Average BMD” value was 534 mg/mL in data set [3] (10 μg/kg s.c. weekly for 12 weeks) and 529 mg/mL in data set [3] (30 μg/kg s.c. weekly for 12 weeks). In addition, the Serum Calcium result in data set [3] (approximately 24 hours after the last dose) is recorded as “normal”. Also, the “Effect on vertebral BMD relative to Ovx vehicle controls” value in data set [3] (setting [7]) is on record as “no significant effect”. In data set [3] (setting [7]), the “Effect on vertebral biomechanical strength relative to Ovx vehicle controls” value is “no significant effect”.
Consider “SEQ ID NO: 1 with 5 kD mPEG (SVSEIQLMHNLGRHLASMERVEWLRKLLQDVHNF-NH2; not fully specified (residue 26))”, for which the “Hypercalcemic Dose/BMD Dose” value in data set [4] is given as more than 8.8. In data set [5] (derived from Table 3), the “Hypercalcemic Dose/Femoral Neck Strength Dose” value was more than 9.7, the “Hypercalcemic Dose/Midshaft Strength Dose” value is more than 1.0, the “Hypercalcemic Dose/Vertebral BMC Dose” value is listed as more than 3.34 and the “Hypercalcemic Dose/Vertebral BMD Dose” value is more than 1.0. Moreover, in data set [5] (derived from Table 3), the “Hypercalcemic Dose/Vertebral Strength Dose” value was more than 1.0. Further, in data set [5] (dose at which Sham level of vertebral BMC is achieved), the “Vertebral BMC Dose” value came to 32 nmol/kg. Moreover, the “Vertebral BMD Dose” value in data set [5] (dose at which Sham level of vertebral BMD is achieved, s.c. every 6 or 7 days for two months) is more than 108 nmol/kg. Besides, the “Fem Neck Strength Dose” value in data set [5] (dose at which femoral neck strength comparable to sham vehicle control and positive control is achieved) came to 11 nmol/kg. The “Midshaft Strength Dose” value in data set [5] (dose at which midshaft strength comparable to sham vehicle control and positive control is achieved) is 108 nmol/kg. Besides, the “Vertebral Strength Dose” value in data set [5] (dose at which vertebral strength comparable to sham and positive control is achieved) came out at 108 nmol/kg. Besides, the “Hypercalcemia Dose” value in data set [5] (sera 24 hours after administration, > means highest dose tested, not reached) is more than 107 nmol/kg. In data set [6] (setting [8]), the “Vertebral BMD” value came out at 567 mg/cc and the “Serum Calcium” value was 10.86 mg/dL. Besides, in data set [6] (setting [9]), the “Vertebral BMD” value was 589 mg/cc and the “Serum Calcium” value was 10.79 mg/dL. In addition, in data set [6] (setting [10]), the “Vertebral BMD” value was found to be 612 mg/cc and the “Serum Calcium” value was determined as 11.03 mg/dL.
